Data published in US7960407B2, “Crystal forms of an imidazole derivative” (Requalia Pharma Inc., priority 2006, dated 2011).

Tests used:
[1] = solid-state stability of the crystal forms; type: physicochemical; conditions: qualitative comparison of the forms identified
[2] = hygroscopicity of the crystal form; type: physicochemical; conditions: solid form, qualitative

Structure (SMILES) | stability of the crystal form [1] | other results
CCc1nc2c(C)nc(C)cc2n1-c1ccc(CCNC(=O)NS(=O)(=O)c2ccc(C)cc2)cc1 [Crystal Form C, N-[({2-[4-(2-Ethyl-4,6-dimethyl-1H-imidazo[4,5-c]pyridin-1-yl)phenyl]ethyl}amino)carbonyl]-4-methylbenzenesulfonamide] | less stable | stability of the crystal form ([1]; listed as C): (metastable)
CCc1nc2c(C)nc(C)cc2n1-c1ccc(CCNC(=O)NS(=O)(=O)c2ccc(C)cc2)cc1 [Crystal Form D, N-[({2-[4-(2-Ethyl-4,6-dimethyl-1H-imidazo[4,5-c]pyridin-1-yl)phenyl]ethyl}amino)carbonyl]-4-methylbenzenesulfonamide] | less stable | –
CCc1nc2c(C)nc(C)cc2n1-c1ccc(CCNC(=O)NS(=O)(=O)c2ccc(C)cc2)cc1 [Crystal Form G, N-[({2-[4-(2-Ethyl-4,6-dimethyl-1H-imidazo[4,5-c]pyridin-1-yl)phenyl]ethyl}amino)carbonyl]-4-methylbenzenesulfonamide] | less stable | –
CCc1nc2c(C)nc(C)cc2n1-c1ccc(CCNC(=O)NS(=O)(=O)c2ccc(C)cc2)cc1 [Example 2, 2-ETHYL-4,6-DI METHYL-1-(4-{2-[({[(4-METHYLPHENYL)SULFONYL]AMINO}CARBONYL)AMINO]ETHYL}PHENYL)-1H-IMIDAZO[4,5-c]PYRIDINE, reference compound] | – | stability of the crystal form ([1]; listed as N-[({2-[4-(2-Ethyl-4,6-dimethyl-1H-imidazo[4,5-c]pyridin-1-yl)phenyl]ethyl}amino): unstable
CCc1nc2c(C)nc(C)cc2n1-c1ccc(CCNC(=O)NS(=O)(=O)c2ccc(C)cc2)cc1 [Polymorph Form A, N-[({2-[4-(2-Ethyl-4,6-dimethyl-1H-imidazo[4,5-c]pyridin-1-yl)phenyl]ethyl}amino)carbonyl]-4-methylbenzenesulfonamide] | most stable | hygroscopicity [2]: non-hygroscopic
CCc1nc2c(C)nc(C)cc2n1-c1ccc(CCNC(=O)NS(=O)(=O)c2ccc(C)cc2)cc1 [Polymorph Form B, N-[({2-[4-(2-Ethyl-4,6-dimethyl-1H-imidazo[4,5-c]pyridin-1-yl)phenyl]ethyl}amino)carbonyl]-4-methylbenzenesulfonamide] | stable | –
